Test results taken from ChEMBL document CHEMBL5380820, “Design and Discovery of Novel Cyclic Peptides as EDPs-EBP Interaction Inhibitors for the Treatment of Liver Fibrosis” (J Med Chem, 2023).
Activity calls are given as the source filed them. No cut-off for these calls is given here. Where a SMILES comes first, the peptide text is derived from it. Bridges are numbered along the chain shown (N, C = ends). [ ]: non-standard residue; d: D form. Aib = CC(C)(N)C(=O)O

What was measured:
LX-2 [1] = test: Antifibrotic activity against TGF-beta induced human LX2 cells assessed as inhibition of neuraminidase activity using NA fluorogenic substrate by measuring fluorescence intensity relative to control; assay type: functional
LX-2 [2] = test: Antifibrotic activity against TGF-beta induced human LX2 cells assessed as inhibition of alpha-SMA expression by measuring fluorescence intensity relative to control; assay type: functional
LX-2 [3] = test: Antifibrotic activity against TGF-beta induced human LX2 cells assessed as inhibition of collagen I expression by measuring fluorescence intensity relative to control; assay type: functional
LX-2 [4] = test: Antifibrotic activity against TGF-beta induced human LX2 cells assessed as inhibition of neuraminidase activity using NA fluorogenic substrate measured at 10 uM for 24 hrs by measuring fluorescence intensity; assay type: functional, cell-based
LX-2 [5] = test: Antifibrotic activity against TGF-beta induced human LX2 cells assessed as reduction of alpha-SMA expression measured at 10 uM for 24 hrs by measuring fluorescence intensity; assay type: functional, cell-based
LX-2 [6] = test: Antifibrotic activity against TGF-beta induced human LX2 cells assessed as reduction of collagen I expression measured at 10 uM for 24 hrs by measuring fluorescence intensity; assay type: functional, cell-based
LX-2 [7] = test: Antifibrotic activity against TGF-beta induced human LX2 cells assessed as reduction of alpha-SMA expression measured at 10 uM for 24 hrs by measuring fluorescence intensity relative to control; assay type: functional; set-up: scale not given: the % may be the effect or the level left
LX-2 [8] = test: Antifibrotic activity against TGF-beta induced human LX2 cells assessed as reduction of collagen I expression measured at 10 uM for 24 hrs by measuring fluorescence intensity relative to control; assay type: functional; set-up: scale not given: the % may be the effect or the level left
LX2 [9] = test: Inhibition of elastin receptor complex elastin binding protein subunit in human LX2 cells assessed as inhibition of EDP induced ERK phosphorylation treated at 10 uM for 24 hrs by Western blot analysis; assay type: cell-based
LX2 [10] = test: Inhibition of elastin receptor complex elastin binding protein subunit in human LX2 cells assessed as inhibition of EDP induced PI3K phosphorylation treated at 10 uM for 24 hrs by Western blot analysis; assay type: cell-based
LX2 [11] = test: Inhibition of elastin receptor complex elastin binding protein subunit in human LX2 cells assessed as inhibition of EDP induced AMPK phosphorylation treated at 10 uM for 24 hrs by Western blot analysis; assay type: cell-based
Mus musculus [12] = test: Antifibrotic activity in CCl4-induced C57BL/6 mouse model of liver fibrosis assessed as reduction in serum ALT level treated at 150 ug/kg, ip daily for 3 weeks; assay type: functional, organism-based; conditions: dose 150.0 µg/kg
Mus musculus [13] = test: Antifibrotic activity in CCl4-induced C57BL/6 mouse model of liver fibrosis assessed as reduction in serum AST level treated at 150 ug/kg, ip daily for 3 weeks; assay type: functional, organism-based; conditions: dose 150.0 µg/kg

Compound	inhibition (INH) (LX-2 [1])	inhibition (INH) (LX-2 [3])	Activity (LX-2 [5])	inhibition (INH) (LX-2 [2])	other results
H-VVGAPSAQDEASPL-NH2	26.7%	5.9%	inactive	–	inhibition (LX-2 [2]): inactive; Activity (LX-2 [4]): inactive; Activity (LX-2 [6]): inactive
CC(C)C[C@@H]1NC(=O)[C@@H]2CCCN2C(=O)[C@H](CO)NC(=O)[C@H](C)NC(=O)[C@H](CCC(=O)O)NC(=O)[C@H](CC(=O)O)NC(=O)[C@H](CCC(N)=O)NC(=O)C(C)(C)NC(=O)[C@H](CO)NC(=O)[C@@H]2CCCN2C(=O)[C@H](CO)NC(=O)CNC(=O)[C@H](C(C)C)NC(=O)[C@H](C(C)C)NC1=O (cyclo(ASPLVVGSPS[Aib]QDE))	75%	26.8%	–	24.1%	Activity (LX-2 [7]): ~50%; Activity (LX-2 [8]): ~50%; inhibition (LX2 [9]): Active; inhibition (LX2 [10]): Active; inhibition (LX2 [11]): Active
H-VAGSPSAQDEASPL-NH2	60%	28%	Active	26.4%	Activity (LX-2 [6]): Active
CC(C)C[C@@H]1NC(=O)[C@@H]2CCCN2C(=O)[C@H](CO)NC(=O)[C@H](C)NC(=O)[C@H](CCC(=O)O)NC(=O)[C@H](CC(=O)O)NC(=O)[C@H](CCC(N)=O)NC(=O)[C@H](C)NC(=O)[C@H](CO)NC(=O)[C@@H]2CCCN2C(=O)[C@H](CO)NC(=O)CNC(=O)[C@H](C)NC(=O)[C@H](C(C)C)NC1=O (cyclo(AGSPSAQDEASPLV))	44%	0.9%	–	11.5%	–
H-VVGSPAAQDEASPL-NH2	55.3%	34.6%	–	33.4%	Activity (LX-2 [6]): Active
H-VVGSPSAQDEASPA-NH2	54.7%	34.6%	Active	38.7%	Activity (LX-2 [6]): Active
H-VVASPSAQDEASPL-NH2	26.8%	6.9%	inactive	–	inhibition (LX-2 [2]): inactive; Activity (LX-2 [4]): inactive; Activity (LX-2 [6]): inactive
H-VVGSASAQDEASPL-NH2	24.4%	7.5%	Active	3.6%	–
H-VVGSPSAQDEAAPL-NH2	28.6%	21.7%	Active	11.3%	–
H-VVGSPSAQDEASAL-NH2	23.9%	20.6%	inactive	18.5%	Activity (LX-2 [4]): inactive; Activity (LX-2 [6]): inactive
CC(C)[C@@H]1NC(=O)CNC(=O)[C@@H]2CCCN2C(=O)[C@H](CO)NC(=O)[C@H](C)NC(=O)[C@H](CCC(=O)O)NC(=O)[C@H](CC(=O)O)NC(=O)[C@H](CCC(N)=O)NC(=O)[C@H](C)NC(=O)[C@H](CS)NC(=O)[C@@H]2CCCN2C(=O)[C@H](CO)NC(=O)CNC(=O)[C@H](C(C)C)NC1=O (cyclo(AQDEASPGVVGSPC))	36.4%	12.3%	–	5.3%	–
CC(C)C[C@@H]1NC(=O)[C@@H]2CCCN2C(=O)[C@H](CO)NC(=O)C(C)(C)NC(=O)[C@H](CCC(=O)O)NC(=O)[C@H](CC(=O)O)NC(=O)[C@H](CCC(N)=O)NC(=O)[C@H](C)NC(=O)[C@H](CO)NC(=O)[C@@H]2CCCN2C(=O)[C@H](CO)NC(=O)CNC(=O)[C@H](C(C)C)NC(=O)[C@H](C(C)C)NC1=O (cyclo(AQDE[Aib]SPLVVGSPS))	35%	–	–	5.2%	inhibition (LX-2 [3]): inactive
H-VVGSPSAQAEASPL-NH2	33.4%	5.2%	Active	7.1%	–
CC(C)C[C@@H]1NC(=O)[C@@H]2CCCN2C(=O)[C@H](CO)NC(=O)[C@H](C)NC(=O)[C@H](CCC(=O)O)NC(=O)[C@H](CC(=O)O)NC(=O)[C@H](CCC(N)=O)NC(=O)[C@H](C)NC(=O)[C@H](CCCCN)NC(=O)[C@@H]2CCCN2C(=O)[C@H](CO)NC(=O)CNC(=O)[C@H](C(C)C)NC(=O)[C@H](C(C)C)NC1=O (cyclo(AQDEASPLVVGSPK))	30%	1.7%	–	2.8%	–
CC(C)[C@@H]1NC(=O)CNC(=O)[C@@H]2CCCN2C(=O)[C@H](CO)NC(=O)[C@H](C)NC(=O)[C@H](CCC(=O)O)NC(=O)[C@H](CC(=O)O)NC(=O)[C@H](CCC(N)=O)NC(=O)[C@H](C)NC(=O)CNC(=O)[C@@H]2CCCN2C(=O)[C@H](CO)NC(=O)CNC(=O)[C@H](C(C)C)NC1=O (cyclo(AQDEASPGVVGSPG))	2.6%	8.5%	–	5.3%	–
CC(C)C[C@@H]1NC(=O)[C@H](C(C)C)NC(=O)[C@H](CC(C)C)NC(=O)[C@@H]2CCCN2C(=O)[C@H](CO)NC(=O)[C@H](C)NC(=O)[C@H](CCC(=O)O)NC(=O)[C@H](CC(=O)O)NC(=O)[C@H](CCC(N)=O)NC(=O)[C@H](C)NC(=O)[C@H](CO)NC(=O)[C@@H]2CCCN2C(=O)[C@H](CO)NC(=O)CNC1=O (cyclo(AQDEASPLVLGSPS))	27.4%	–	–	–	inhibition (LX-2 [2]): inactive; inhibition (LX-2 [3]): inactive
CC(C)C[C@@H]1NC(=O)[C@@H]2CCCN2C(=O)[C@H](CO)NC(=O)CNC(=O)[C@H](C(C)C)NC(=O)[C@H](C(C)C)NC(=O)[C@H](CC(C)C)NC(=O)[C@@H]2CCCN2C(=O)[C@H](CO)NC(=O)[C@H](C)NC(=O)[C@H](CCC(=O)O)NC(=O)[C@H](CC(=O)O)NC(=O)[C@H](CCC(N)=O)NC(=O)[C@H](C)NC1=O (cyclo(AQDEASPLVVGSPL))	9%	9.8%	–	1.7%	Activity (Mus musculus [12]): Active; Activity (Mus musculus [13]): Active
H-VVGSPSAADEASPL-NH2	19.1%	11.8%	inactive	10.6%	Activity (LX-2 [4]): inactive; Activity (LX-2 [6]): inactive
H-VVGSPSAQDAASPL-NH2	20.7%	17.6%	Active	–	inhibition (LX-2 [2]): inactive
CC(C)C[C@@H]1NC(=O)[C@H](C(C)C)NC(=O)[C@H](C)NC(=O)[C@@H]2CCCN2C(=O)[C@H](CO)NC(=O)[C@H](C)NC(=O)[C@H](CCC(=O)O)NC(=O)[C@H](CC(=O)O)NC(=O)[C@H](CCC(N)=O)NC(=O)[C@H](C)NC(=O)[C@H](CO)NC(=O)[C@@H]2CCCN2C(=O)[C@H](CO)NC(=O)CNC1=O (cyclo(AQDEASPAVLGSPS))	42.2%	1.6%	–	20.7%	–
CC(C)C[C@@H]1NC(=O)[C@@H]2CCCN2C(=O)[C@H](CO)NC(=O)[C@H](C)NC(=O)[C@H](CCC(=O)O)NC(=O)[C@H](CC(=O)O)NC(=O)[C@H](CCC(N)=O)NC(=O)[C@H](C)NC(=O)[C@H]([C@@H](C)O)NC(=O)[C@@H]2CCCN2C(=O)[C@H](CO)NC(=O)CNC(=O)[C@H](C(C)C)NC(=O)[C@H](C(C)C)NC1=O (cyclo(AQDEASPLVVGSPT))	27%	13.9%	–	9.9%	–
Cc1ccc(=O)n(-c2ccccc2)c1	–	–	–	–	Activity (Mus musculus [12]): Active; Activity (Mus musculus [13]): Active
H-AVGSPSAQDEASPL-NH2	31.2%	6.2%	–	3.9%	–
CC(C)C[C@H](NC(=O)[C@@H]1CCCN1C(=O)[C@H](CO)NC(=O)[C@H](C)NC(=O)[C@H](CCC(=O)O)NC(=O)[C@@H]1CC(=O)N[C@@H](C(C)C)C(=O)N[C@@H](C(C)C)C(=O)NCC(=O)N[C@@H](CO)C(=O)N2CCC[C@H]2C(=O)N[C@@H](CO)C(=O)N[C@@H](C)C(=O)N[C@@H](CCC(N)=O)C(=O)N1)C(=O)O (VVGSPSAQDEASPL-OH; lactam N-9)	62.2%	36.1%	–	39%	Activity (LX-2 [7]): ~50%; Activity (LX-2 [8]): ~50%; inhibition (LX2 [9]): Active; inhibition (LX2 [10]): Active; inhibition (LX2 [11]): Active
CC(C)[C@@H]1NC(=O)CNC(=O)[C@@H]2CCCN2C(=O)[C@H](CO)NC(=O)[C@H](C)NC(=O)[C@H](CCC(=O)O)NC(=O)[C@H](CC(=O)O)NC(=O)[C@H](CCC(N)=O)NC(=O)[C@H](C)NC(=O)[C@H](CC(=O)O)NC(=O)[C@@H]2CCCN2C(=O)[C@H](CO)NC(=O)CNC(=O)[C@H](C(C)C)NC1=O (cyclo(AQDEASPGVVGSPD))	49.5%	2.2%	–	17.6%	–
